Source: US8691761B2, “Somatostatin receptor 2 antagonists” (priority 2006, dated 2014)
Several values for one entry are separate records, joined by “and”; a condition that tells them apart may be missing. Identical values can stand only once. Entries after “also recorded” stand apart in the source; their conditions may differ. Like-named read-outs stand apart in the source and are kept apart here. Bridge positions count the residues as written; N and C are the ends. Square brackets hold non-standard residues; d marks the D form. Peptide text beside a SMILES is read from it. * marks the point of attachment. ξ: configuration not given here. DOTA = O=C(O)CN1CCN(CC(=O)O)CCN(CC(=O)*)CCN(CC(=O)O)CC1; Phe(4-NO2) = N[C@@H](Cc1ccc([N+](=O)[O-])cc1)C(=O)O; dPhe(4-NHCONH2) = NC(=O)Nc1ccc(C[C@@H](N)C(=O)O)cc1; Phe(4-Cl) = N[C@@H](Cc1ccc(Cl)cc1)C(=O)O; ξDihydroorotoyl = O=C1CC(C(=O)*)NC(=O)N1; 2Nal = N[C@@H](Cc1ccc2ccccc2c1)C(=O)O; ξPhe(4-NH2) = Nc1ccc(CC(N)C(=O)O)cc1

What was measured:
sst2 = sst2 (Homo sapiens, UniProt P30874); assay: Calcium release assay in HEK-sst2 cells (Fluo-4NW); type: cell-based; parameters: expressed in transfected cells; host or cells: HEK293 (HEK-sst2); conditions: n ≧ 2
Chain of sst2 (P30874 whole entry): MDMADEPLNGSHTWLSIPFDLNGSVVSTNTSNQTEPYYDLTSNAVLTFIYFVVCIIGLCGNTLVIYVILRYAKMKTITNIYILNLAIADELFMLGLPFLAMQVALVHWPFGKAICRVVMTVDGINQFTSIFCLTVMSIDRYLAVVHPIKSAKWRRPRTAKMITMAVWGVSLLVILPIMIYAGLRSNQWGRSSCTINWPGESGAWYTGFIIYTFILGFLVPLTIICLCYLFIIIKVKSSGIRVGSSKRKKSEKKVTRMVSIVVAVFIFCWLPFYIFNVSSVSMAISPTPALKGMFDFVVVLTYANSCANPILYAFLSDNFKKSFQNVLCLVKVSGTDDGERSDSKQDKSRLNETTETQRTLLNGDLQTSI
Experimental: Calcium release assay. Intracellular calcium release was measured in HEK-sst2 using the Fluo-4NW Calcium Assay kit as described previously (Magrys, et al. “The role of anti-alpha-enolase autoantibodies in pathogenicity of autoimmune-mediated retinopathy.” J. Clin. Immunol. 2007, 27, 181-192; Michel et al. “The Nef protein of human immunodeficiency virus is a broad-spectrum modulator of chemokine receptor cell surface levels that acts independently of classical motifs for receptor endocytosis and Galphai signaling.” Mol. Biol. Cell. 2006, 17, 3578-3590). In brief, HEK-sst2 cells were seeded (25,000 cells per well) in poly-D-lysine (20 μg/mL) coated 96 well plates and cultured for 1 day at 37° C. and 5% CO2 in culture medium. At the day of the experiment, the cells were washed with assay buffer (1×HBSS, 20 mM HEPES) containing 2.5 mM probenecid, and then loaded with 100 μL/well Fluo-4NW dye in assay buffer containing 2.5 mM probenecid for 30 min at 37° C. and 5% CO2 and then for further 30 min at room temperature. To measure the intracellular calcium mobilization after stimulation with the SRIF analogues to be tested, the dye-loaded cells were transferred to a SpectraMax M2^e (Molecular Devices, Sunnyvale, Calif.). Intracellular calcium mobilization was recorded in a kinetic for 60 sec at room temperature monitoring fluorescence emission at 520 nm (with λex=485 nm) in the presence of the analogues at the concentrations indicated. Maximum fluorescence (Fmax) was measured after the addition of 25 μM ionomycin. Baseline (control) measurements were taken for dye-loaded, untreated cells. Data are shown as percentage of Fmax (% Fmax) as reported previously. (Magrys, et al. J. Clin. Immunol. 2007, 27, 181-192; Michel et al. Mol. Biol. Cell. 2006, 17, 3578-3590). All experiments were repeated at least three times in triplicate.

human sst2A receptor = biological target: T1, human sst2A receptor (Homo sapiens, UniProt P30874); assay: Immunofluorescence-based sst2 internalization assay in HEK-sst2 cells; type: cell-based; conditions: n ≧ 2
T1 construct: expressed in transfected cells; host or cells: HEK293 (HEK-sst2)
T1 sequence (P30874 whole entry): as above
How it was run: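 HEK-sst2 cells treated with vehicle, 100 nM [Tyr^3]-octreotide, octreotide plus 100-fold excess test analogue, or test analogue alone at 10 μM. Receptor internalization visualized by immunofluorescence microscopy with sst2-specific antibody R2-88.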

hSSTR3 = biological target: T2, hSSTR3 (Homo sapiens, UniProt P32745); assay: Receptor autoradiography, displacement of 125I-[Leu8,D-Trp22,Tyr25]-SRIF-28 from membrane pellet sections; type: binding
T2 construct: expressed in transfected cells; host or cells: CHO-K1 or CCL39 cells
T2 sequence (P32745 whole entry): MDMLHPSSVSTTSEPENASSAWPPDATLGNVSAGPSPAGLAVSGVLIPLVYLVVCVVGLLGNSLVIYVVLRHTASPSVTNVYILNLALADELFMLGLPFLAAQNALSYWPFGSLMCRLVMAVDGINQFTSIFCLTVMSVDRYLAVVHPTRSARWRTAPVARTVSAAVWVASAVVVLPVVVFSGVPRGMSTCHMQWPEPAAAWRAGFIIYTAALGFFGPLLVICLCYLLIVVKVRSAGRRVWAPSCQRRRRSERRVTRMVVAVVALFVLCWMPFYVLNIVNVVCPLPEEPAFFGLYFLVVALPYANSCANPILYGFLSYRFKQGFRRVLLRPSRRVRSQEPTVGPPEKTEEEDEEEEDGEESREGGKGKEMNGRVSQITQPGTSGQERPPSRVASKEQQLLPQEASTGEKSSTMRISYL

hSSTR1 = biological target: T3, hSSTR1 (Homo sapiens, UniProt P30872); assay: as above; type: binding
T3 construct: expressed in transfected cells; host or cells: CHO-K1 or CCL39 cells
T3 sequence (P30872 whole entry): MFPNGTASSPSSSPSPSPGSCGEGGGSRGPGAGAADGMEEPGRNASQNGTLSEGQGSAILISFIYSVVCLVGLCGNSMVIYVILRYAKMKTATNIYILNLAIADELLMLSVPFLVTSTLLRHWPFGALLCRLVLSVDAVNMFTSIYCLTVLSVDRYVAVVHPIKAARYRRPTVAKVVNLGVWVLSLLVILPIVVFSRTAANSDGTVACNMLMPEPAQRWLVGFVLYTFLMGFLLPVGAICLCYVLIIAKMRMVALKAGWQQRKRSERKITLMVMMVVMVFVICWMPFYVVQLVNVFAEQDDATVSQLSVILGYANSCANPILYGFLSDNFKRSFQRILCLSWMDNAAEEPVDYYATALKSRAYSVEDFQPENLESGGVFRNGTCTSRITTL

hSSTR2 = biological target: T4, hSSTR2 (Homo sapiens, UniProt P30874); assay: as above; type: binding
T4 construct: expressed in transfected cells; host or cells: CHO-K1 or CCL39 cells
T4 sequence (P30874 whole entry): as the sequence (P30874 whole entry) above

hSSTR4 = biological target: T5, hSSTR4 (Homo sapiens, UniProt P31391); assay: as above; type: binding
T5 construct: expressed in transfected cells; host or cells: CHO-K1 or CCL39 cells
T5 sequence (P31391 whole entry): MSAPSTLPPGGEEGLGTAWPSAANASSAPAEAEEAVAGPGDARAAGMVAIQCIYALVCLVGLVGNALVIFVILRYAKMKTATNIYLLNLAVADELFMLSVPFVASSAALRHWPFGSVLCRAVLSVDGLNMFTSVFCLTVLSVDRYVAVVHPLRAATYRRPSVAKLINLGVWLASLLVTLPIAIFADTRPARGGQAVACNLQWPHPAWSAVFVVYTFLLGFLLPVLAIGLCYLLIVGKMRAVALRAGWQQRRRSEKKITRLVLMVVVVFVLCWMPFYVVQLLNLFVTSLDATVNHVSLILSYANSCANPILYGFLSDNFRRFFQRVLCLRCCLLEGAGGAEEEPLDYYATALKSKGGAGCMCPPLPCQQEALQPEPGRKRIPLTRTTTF

hSSTR5 = biological target: T6, hSSTR5 (Homo sapiens, UniProt P35346); assay: as above; type: binding
T6 construct: expressed in transfected cells; host or cells: CHO-K1 or CCL39 cells
T6 sequence (P35346 whole entry): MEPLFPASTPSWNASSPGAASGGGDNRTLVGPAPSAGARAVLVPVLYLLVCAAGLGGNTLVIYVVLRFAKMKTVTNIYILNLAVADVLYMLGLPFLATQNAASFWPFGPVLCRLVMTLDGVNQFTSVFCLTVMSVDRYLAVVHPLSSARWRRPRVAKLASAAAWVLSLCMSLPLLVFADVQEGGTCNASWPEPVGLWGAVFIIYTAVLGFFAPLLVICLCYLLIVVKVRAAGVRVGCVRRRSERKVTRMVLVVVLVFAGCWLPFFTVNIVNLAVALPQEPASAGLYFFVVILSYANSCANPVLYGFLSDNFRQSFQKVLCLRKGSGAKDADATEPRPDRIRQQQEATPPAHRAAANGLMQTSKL

HEK-sst2 tumors [1] = conditions: mouse, in vivo
Experimental: (§1) The following protocol was used to determine biodistribution
(§2) Confirmation that the transfected tumors were indeed expressing solely sst2 was obtained in resected tumor samples tested in vitro with somatostatin receptor autoradiography using subtype selective ligands.
(§3) The biodistribution of was studied at 4 h or 24 h after injection. The organs of interest were collected, blotted dry, weighed, their radioactivity measured and the percentage of injected activity per gram (% IA/g) calculated.

HEK-sst2 tumors [2] = assay: In vivo biodistribution of radiolabeled peptides in nude mice bearing HEK-sst2 tumors; conditions: mouse, in vivo
Experimental: as §1, §2, §3

[3] = Table 1, inhibition of radioligand binding to cloned human receptor, read-out: IC50 hSSTR3
[4] = Table 3, mean ± SEM when N ≧ 3, read-out: sst3 binding affinity (IC50)
[5] = Table 1, inhibition of radioligand binding to cloned human receptor, read-out: IC50 hSSTR1
[6] = Table 3, mean ± SEM when N ≧ 3, read-out: sst1 binding affinity (IC50)
[7] = Table 1, inhibition of radioligand binding to cloned human receptor, read-out: IC50 hSSTR2
[8] = Table 3, mean ± SEM when N ≧ 3, read-out: sst2 binding affinity (IC50)
[9] = Table 1, inhibition of radioligand binding to cloned human receptor, read-out: IC50 hSSTR4
[10] = Table 3, mean ± SEM when N ≧ 3, read-out: sst4 binding affinity (IC50)
[11] = Table 1, inhibition of radioligand binding to cloned human receptor, read-out: IC50 hSSTR5
[12] = Table 3, mean ± SEM when N ≧ 3, read-out: sst5 binding affinity (IC50)

| Calcium release tested in vitro in HEK-sst2 cells (function) (sst2) | sst2-internalization tested in vitro in HEK-sst2 cells (function) (human sst2A receptor) | IC50 (hSSTR3; [3]) | IC50 (hSSTR3; [4]) | IC50 (hSSTR1; [5]) | IC50 (hSSTR1; [6]) | sst2 binding affinity relative to SRIF-28 (hSSTR2) | IC50 (hSSTR2; [7]) | IC50 (hSSTR2; [8]) | IC50 (hSSTR4; [9]) | IC50 (hSSTR4; [10]) | IC50 (hSSTR5; [11]) | IC50 (hSSTR5; [12]) | tumor to kidney ratio (in words) (HEK-sst2 tumors [1]) | tumor to kidney ratio (in words) (HEK-sst2 tumors [2]) | Compound |
| --- | --- | --- | --- | --- | --- | --- | --- | --- | --- | --- | --- | --- | --- | --- | --- |
| Antagonist | Antagonist | > 1000 nM | > 1000 nM | > 1000 nM | > 1000 nM |  | 1.5 nM | 1.3 nM | > 1000 nM | > 1000 nM | > 1000 nM | > 1000 nM |  | excellent tumor to kidney ratio | C[C@@H](O)[C@@H]1NC(=O)[C@H](CCCCN)NC(=O)[C@@H](Cc2ccc(NC(N)=O)cc2)NC(=O)[C@H](Cc2ccc(O)cc2)NC(=O)[C@H](NC(=O)[C@H](Cc2ccc([N+](=O)[O-])cc2)NC(=O)CN2CCN(CC(=O)O)CCN(CC(=O)O)CCN(CC(=O)O)CC2)CSSC[C@@H](C(=O)N[C@@H](Cc2ccc3ccccc3c2)C(N)=O)NC1=O [Peptide No. 5, DOTA-pNO2Phe-c[DCys-Tyr-DAph(Cbm)-Lys-Thr-Cys]-2Nal-NH2] ({DOTA}-[Phe(4-NO2)][dC]Y[dPhe(4-NHCONH2)]KTC[2Nal]-NH2; disulfide 2-7) |
| Antagonist | Antagonist |  |  |  |  |  |  |  |  |  |  |  |  | excellent tumor to kidney ratio | C[C@@H](O)[C@@H]1NC(=O)[C@H](CCCCN)NC(=O)[C@@H](Cc2ccc(NC(N)=O)cc2)NC(=O)C(Cc2ccc(NC(=O)C3CC(=O)NC(=O)N3)cc2)NC(=O)[C@H](NC(=O)[C@H](Cc2ccc(Cl)cc2)NC(=O)CN2CCN(CC(=O)O)CCN(CC(=O)O)CCN(CC(=O)O)CC2)CSSC[C@@H](C(=O)N[C@@H](Cc2ccc3ccccc3c2)C(N)=O)NC1=O (stereo partly drawn) [Peptide No. 30, DOTA-Cpa-c[DCys-Aph(Hor)-DAph(Cbm)-Lys-Thr-Cys]-2Nal-NH2] ({DOTA}-[Phe(4-Cl)][dC][ξPhe(4-NH2)](ξDihydroorotoyl)[dPhe(4-NHCONH2)]KTC[2Nal]-NH2; disulfide 2-7) |

| Compound | Calcium release tested in vitro in HEK-sst2 cells (function) (sst2) | sst2-internalization tested in vitro in HEK-sst2 cells (function) (human sst2A receptor) | IC50 (hSSTR3; [3]) | IC50 (hSSTR3; [4]) | IC50 (hSSTR1; [5]) | IC50 (hSSTR1; [6]) | sst2 binding affinity relative to SRIF-28 (hSSTR2) | IC50 (hSSTR2; [7]) | IC50 (hSSTR2; [8]) | IC50 (hSSTR4; [9]) | IC50 (hSSTR4; [10]) | IC50 (hSSTR5; [11]) | IC50 (hSSTR5; [12]) | tumor to kidney ratio (in words) (HEK-sst2 tumors [1]) | tumor to kidney ratio (in words) (HEK-sst2 tumors [2]) |
| --- | --- | --- | --- | --- | --- | --- | --- | --- | --- | --- | --- | --- | --- | --- | --- |
| C[C@@H](O)[C@@H]1NC(=O)[C@H](CCCCN)NC(=O)[C@@H](Cc2ccc(NC(N)=O)cc2)NC(=O)[C@H](Cc2ccc(O)cc2)NC(=O)[C@H](NC(=O)[C@H](Cc2ccc([N+](=O)[O-])cc2)NC(=O)CN2CCN(CC(=O)O)CCN(CC(=O)O)CCN(CC(=O)O)CC2)CSSC[C@@H](C(=O)N[C@H](Cc2ccc(O)cc2)C(N)=O)NC1=O [Peptide No. 3, DOTA-pNO2Phe-c[DCys-Tyr-DAph(Cbm)-Lys-Thr-Cys]-DTyr-NH2] ({DOTA}-[Phe(4-NO2)][dC]Y[dPhe(4-NHCONH2)]KTC[dY]-NH2; disulfide 2-7) | Antagonist | antagonistic property; also recorded: Antagonist | > 1000 nM | > 1000 nM | > 1000 nM | > 1000 nM | three to four-fold greater | 0.53 ± 0.06 nM | 0.75 nM and < 1 nM | > 1000 nM | > 1000 nM | > 1000 nM | > 1000 nM | excellent tumor to kidney ratio |  |
